From patent publication US10219516B2, “Molecules having pesticidal utility, and intermediates, compositions, and processes, related thereto” (priority 2015, dated 2019) come the findings set out here.

Where two headings read alike, the source gives them in different places.

Common to all, as to format: in vivo
Assay [1] relates to Beet Armyworm (Spodoptera exigua, LAPHEG). Nature of the assay: Bioassay on Beet Armyworm (BAW), 128-well diet tray assay. The gist of the method: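 Diet in each of eight wells received 50 μg/cm^2 of test molecule (90:10 acetone-water, dried), then one to five second-instar larvae were added. Mortality (%) was scored after five to seven days at 25° C. under 14:10 light-dark and averaged across the wells.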

In assay [2] the test system is Cabbage Looper (Trichoplusia ni, TRIPNI). Nature of the assay: Bioassay on Cabbage Looper (CL), 128-well diet tray assay. The following applies: Trichoplusia ni. The gist of the method:
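Second-instar larvae, one to five per well, were placed on artificial diet surface-treated with 50 μg/cm^2 test molecule applied in 90:10 acetone-water and dried, eight wells per molecule. Trays were covered, vented and held at 25° C., 14:10 light-dark for five to seven days; percent mortality per well was averaged.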

The test system of assay [3] is Green Peach Aphid (Myzus persicae, MYZUPE). Kind of assay: Bioassay on Green Peach Aphid (GPA), foliar spray on infested cabbage seedlings. The following applies: 72 h. On the procedure: Certain molecules disclosed in this document were tested against GPA using procedures described in the following example. In the reporting of the results, the “GPA & YFM Rating Table” was used (See Table Section).
Cabbage seedlings grown in 3-inch pots, with 2-3 small (3-5 cm) true leaves, were used as test substrate. The seedlings were infested with 20-50 GPA (wingless adult and nymph stages) one day prior to chemical application. Four pots with individual seedlings were used for each treatment. Test molecules (2 mg) were dissolved in 2 mL of acetone/methanol (1:1) solvent, forming stock solutions of 1000 ppm test molecule. The stock solutions were diluted 5× with 0.025% Tween 20 in water to obtain the solution at 200 ppm test molecule. A hand-held aspirator-type sprayer was used for spraying a solution to both sides of […] leaves until runoff. Reference plants (solvent check) were sprayed with the diluent only containing 20% by volume of acetone/methanol (1:1) solvent. Treated plants were held in a holding room for three days at approximately 25° C. and ambient relative humidity (RH) prior to grading. Evaluation was conducted by counting the number of live aphids per plant under a microscope. Percent control was measured using Abbott's correction formula (W. S. Abbott, “A Method of Computing the Effectiveness of an Insecticide” 3. Econ. Entomol. 18 (1925), pp. 265-267) as follows. Corrected % Control=100*(X−Y)/X where X=No. of live aphids on solvent check plants and Y=No. of live aphids on treated plants. The results are indicated in the table entitled “Table ABC: Biological Results” (See Table Section).

The subject of assay [4] is Yellow Fever Mosquito (Aedes aegypti, AEDSAE). Nature of the assay: Bioassay on Yellow Fever Mosquito (YFM), 96-well plate larval assay. The following applies: for YFM (Biological Results, rating): Species YFM (Yellow Fever Mosquito); for YFM rating: Yellow Fever Mosquito, 96-well plate larval assay. The gist of the method: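 Aedes aegypti larvae (about 1 day old) in liver-powder water were added to plates dispensed from DMSO master plates (4000 ppm stock) diluted with 90:10 water/acetone; six replicate plates per master. Lidded plates were held at room temperature for 3 days, then each well was scored for mortality.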

The mark [5] stands for this setting: Species BAW (Beet Armyworm), read-out: BAW (Biological Results, rating).
[6] abbreviates: Species CL (Cabbage Looper), read-out: CL (Biological Results, rating).
Where [7] appears, read: foliar, Species GPA (Green Peach Aphid), read-out: GPA (Biological Results, rating).
The mark [8] stands for this setting: Beet Armyworm, 128-well diet tray assay, read-out: BAW rating.
Where [9] appears, read: Cabbage Looper, 128-well diet tray assay, read-out: CL rating.
[10] abbreviates: Green Peach Aphid, foliar spray on cabbage seedlings, read-out: GPA rating.

For `CC(C)c1ccccc1NC(=O)c1cc(NC(=O)[C@H]2[C@H](c3cc(Cl)cc(Cl)c3)C2(Cl)Cl)ccc1Cl` (relative stereo) [F41, trans-2-Chloro-5-(2,2-dichloro-3-(3,5-dichlorophenyl)cyclopropane-1-carboxamido)-N-(2-isopropylphenyl)benzamide], the pest or weed control at 50 µg/cm2 in assay [1] (setting [5]) and in assay [2] (setting [6]) was 50 to 100% throughout. For the same compound, in assay [3] (setting [7]), the pest or weed control at 200 µg/mL was 0 to 80%. Further, in assay [4], the “YFM (Biological Results, rating)” value is listed as “A (80-100)”.

Turning to `O=C(Nc1ccc(F)cc1F)c1cc(NC(=O)[C@H]2[C@H](c3cc(Cl)c(Cl)c(Cl)c3)C2(Cl)Cl)ccc1Cl` (relative stereo) [F40, trans-2-Chloro-5-(2,2-dichloro-3-(3,4,5-trichlorophenyl)cyclopropane-1-carboxamido)-N-(2,4-difluorophenyl)benzamide], the pest or weed control at 50 µg/cm2 in assay [1] (setting [5]) and in assay [2] (setting [6]) was 50 to 100% each time. The pest or weed control at 200 µg/mL in assay [3] (setting [7]) fell in the range of 80 to 100%. In assay [4], the “YFM (Biological Results, rating)” value was “B (More than 0-Less than 80)”.

Turning to `CN(C(=O)c1cc(NC(=O)[C@H]2[C@H](c3cc(Cl)cc(Br)c3)C2(Cl)Cl)ccc1Cl)c1ccc(F)cc1` (relative stereo) [PF38, trans-5-(3-(3-Bromo-5-chlorophenyl)-2,2-dichlorocyclopropane-1-carboxamido)-2-chloro-N-(4-fluorophenyl)-N-methylbenzamide], the pest or weed control at 50 µg/cm2 in assay [1] (setting [8]) and in assay [2] (setting [9]) was 50 to 100% each time. Also, the pest or weed control at 200 µg/mL in assay [3] (setting [10]) is 80 to 100%. For the same compound, the YFM rating result in assay [4] is “A (80-100)”.

Take `O=C(Nc1ccc(F)cc1)c1cc(NC(=O)[C@H]2[C@H](c3ccc(F)c(Cl)c3)C2(Cl)Cl)ccc1Cl` (relative stereo) [PF4, trans-2-Chloro-5-(2,2-dichloro-3-(3-chloro-4-fluorophenyl)cyclopropane-1-carboxamido)-N-(4-fluorophenyl)benzamide]: the pest or weed control at 50 µg/cm2 in assay [1] (setting [8]) and in assay [2] (setting [9]) was 50 to 100% throughout. Besides, the pest or weed control at 200 µg/mL in assay [3] (setting [10]) was in the range of 80 to 100%. Further, the YFM rating entry in assay [4] is given as “B (More than 0-Less than 80)”.

As to `O=C(Nc1ccc(F)cc1)c1cc(NC(=O)[C@H]2[C@H](c3cc(Cl)c(Cl)c(Cl)c3)C2(Cl)Cl)ccc1Cl` [F279, 2-Chloro-5-((1R,3R)-2,2-dichloro-3-(3,4,5-trichlorophenyl)cyclopropane-1-carboxamido)-N-(4-fluorophenyl)benzamide], the pest or weed control at 50 µg/cm2 in assay [1] (setting [5]) and in assay [2] (setting [6]) was 50 to 100% throughout. The pest or weed control at 200 µg/mL in assay [3] (setting [7]) is 80 to 100%. Also, the “YFM (Biological Results, rating)” value in assay [4] was “A (80-100)”.

`CN(C(=O)c1cc(NC(=O)[C@H]2[C@H](c3ccc(Cl)c(Cl)c3)C2(Cl)Cl)ccc1F)c1ccc(F)cc1F` (relative stereo) [F64, trans-5-(2,2-Dichloro-3-(3,4-dichlorophenyl)cyclopropane-1-carboxamido)-N-(2,4-difluorophenyl)-2-fluoro-N-methylbenzamide]: the pest or weed control at 50 µg/cm2 in assay [1] (setting [5]) and in assay [2] (setting [6]) was 50 to 100% each time. Further, in assay [3] (setting [7]), the pest or weed control at 200 µg/mL lay within 80 to 100%. In addition, in assay [4], the “YFM (Biological Results, rating)” value is “B (More than 0-Less than 80)”.

In the case of `O=C(Nc1cccnc1F)c1cc(NC(=O)[C@H]2[C@H](c3cc(Cl)cc(Cl)c3)C2(Cl)Cl)ccc1Cl` (relative stereo) [F156, trans-2-Chloro-5-(2,2-dichloro-3-(3,5-dichlorophenyl)cyclopropane-1-carboxamido)-N-(2-fluoropyridin-3-yl)benzamide], the pest or weed control at 50 µg/cm2 in assay [1] (setting [5]) and in assay [2] (setting [6]) was 50 to 100% each time. For the same compound, the pest or weed control at 200 µg/mL in assay [3] (setting [7]) is 80 to 100%. For the same compound, the “YFM (Biological Results, rating)” value in assay [4] is given as “B (More than 0-Less than 80)”.

For `Cc1cc(C#N)ccc1NC(=O)c1cc(NC(=O)[C@H]2[C@H](c3cc(Cl)cc(Cl)c3)C2(Cl)Cl)ccc1Cl` (relative stereo) [F36, trans-2-Chloro-N-(4-cyano-2-methylphenyl)-5-(2,2-dichloro-3-(3,5-dichlorophenyl)cyclopropane-1-carboxamido)benzamide], the pest or weed control at 50 µg/cm2 in assay [1] (setting [5]) and in assay [2] (setting [6]) was 50 to 100% each time. The pest or weed control at 200 µg/mL in assay [3] (setting [7]) lay within 0 to 80%. The “YFM (Biological Results, rating)” value in assay [4] was “A (80-100)”.

As for `O=C(Nc1ccc(F)c(F)c1)c1cc(NC(=O)[C@H]2[C@H](c3cc(Cl)cc(Cl)c3)C2(Cl)Cl)ccc1Cl` (relative stereo) [F23, trans-2-Chloro-5-(2,2-dichloro-3-(3,5-dichlorophenyl)cyclopropane-1-carboxamido)-N-(3,4-difluorophenyl)benzamide], the pest or weed control at 50 µg/cm2 in assay [1] (setting [5]) and in assay [2] (setting [6]) was 50 to 100% each time. Further, the pest or weed control at 200 µg/mL in assay [3] (setting [7]) lay in the range of 0 to 80%. Moreover, the “YFM (Biological Results, rating)” value in assay [4] is on record as “A (80-100)”.

As for `O=C(Nc1c(F)cc(F)cc1F)c1cc(NC(=O)[C@H]2[C@H](c3cc(Cl)cc(Cl)c3)C2(Cl)Cl)ccc1Cl` (relative stereo) [F24, trans-2-Chloro-5-(2,2-dichloro-3-(3,5-dichlorophenyl)cyclopropane-1-carboxamido)-N-(2,4,6-trifluorophenyl)benzamide], the pest or weed control at 50 µg/cm2 in assay [1] (setting [5]) and in assay [2] (setting [6]) was 50 to 100% in each case. Moreover, the pest or weed control at 200 µg/mL in assay [3] (setting [7]) fell in the range of 80 to 100%. Besides, the “YFM (Biological Results, rating)” value in assay [4] is “A (80-100)”.

`O=C(Nc1ccc(F)cc1)c1cc(NC(=O)[C@H]2[C@H](c3cc(Cl)c(Cl)c(Cl)c3)C2(Cl)Cl)ccc1Cl` (relative stereo) [F13, trans-2-Chloro-5-(2,2-dichloro-3-(3,4,5-trichlorophenyl)cyclopropane-1-carboxamido)-N-(4-fluorophenyl)benzamide]: the pest or weed control at 50 µg/cm2 in assay [1] (setting [5]) and in assay [2] (setting [6]) was 50 to 100% each time. In addition, in assay [3] (setting [7]), the pest or weed control at 200 µg/mL is 0 to 80%. Moreover, the “YFM (Biological Results, rating)” value in assay [4] is given as “A (80-100)”.

Turning to `O=C(Nc1ccc(F)cn1)c1cc(NC(=O)[C@H]2[C@H](c3cc(Cl)cc(Cl)c3)C2(Cl)Cl)ccc1Cl` (relative stereo) [F76, trans-2-Chloro-5-(2,2-dichloro-3-(3,5-dichlorophenyl)cyclopropane-1-carboxamido)-N-(5-fluoropyridin-2-yl)benzamide], the pest or weed control at 50 µg/cm2 in assay [1] (setting [5]) and in assay [2] (setting [6]) was 50 to 100% each time. Further, the pest or weed control at 200 µg/mL in assay [3] (setting [7]) fell in the range of 80 to 100%. In assay [4], the “YFM (Biological Results, rating)” value is on record as “B (More than 0-Less than 80)”.

Take `O=C(Nc1ccc(F)cc1)c1cc(NC(=O)[C@H]2[C@H](c3cc(Cl)c(Cl)c(Cl)c3)C2(Cl)Cl)ccc1F` (relative stereo) [F29, trans-5-(2,2-Dichloro-3-(3,4,5-trichlorophenyl)cyclopropane-1-carboxamido)-2-fluoro-N-(4-fluorophenyl)benzamide]: the pest or weed control at 50 µg/cm2 in assay [1] (setting [5]) and in assay [2] (setting [6]) was 50 to 100% in each case. Besides, in assay [3] (setting [7]), the pest or weed control at 200 µg/mL was 0 to 80%. The “YFM (Biological Results, rating)” value in assay [4] is “A (80-100)”.

`CN(C(=O)c1cccc(NC(=O)[C@H]2[C@H](c3cc(Cl)cc(Cl)c3)C2(Cl)Cl)c1F)c1ccc(F)cc1` (relative stereo) [F47, trans-3-(2,2-Dichloro-3-(3,5-dichlorophenyl)cyclopropane-1-carboxamido)-2-fluoro-N-(4-fluorophenyl)-N-methylbenzamide]: the pest or weed control at 50 µg/cm2 in assay [1] (setting [5]) and in assay [2] (setting [6]) was 50 to 100% throughout. In addition, the pest or weed control at 200 µg/mL in assay [3] (setting [7]) fell in the range of 0 to 80%. Besides, the “YFM (Biological Results, rating)” value in assay [4] is listed as “B (More than 0-Less than 80)”.

Take `O=C(Nc1c(F)cccc1F)c1cc(NC(=O)[C@H]2[C@H](c3cc(Cl)cc(Cl)c3)C2(Cl)Cl)ccc1Cl` (relative stereo) [F25, trans-2-Chloro-5-(2,2-dichloro-3-(3,5-dichlorophenyl)cyclopropane-1-carboxamido)-N-(2,6-difluorophenyl)benzamide]: the pest or weed control at 50 µg/cm2 in assay [1] (setting [5]) and in assay [2] (setting [6]) was 50 to 100% each time. In assay [3] (setting [7]), the pest or weed control at 200 µg/mL lay within 80 to 100%. In assay [4], the “YFM (Biological Results, rating)” value is reported as “A (80-100)”.
